According to US20250368646A1, “TRICYCLIC FUSED WRN INHIBITORS” (Nimbus Wadjet, Inc., priority 2024, published 2025):

How the values were obtained:
[1] = system: p21 induction in HCT 116 cells; test: p21 induction in cells (in-cell western, p21/GAPDH ratio); format: cell-based; settings: Homo sapiens; HCT 116 colon carcinoma cell line, 24 h compound incubation; percent activation vs internal reference WRN inhibitor; read-out: P21_EC50
Method: The colon carcinoma cell line HCT 116 was obtained from ATCC and cultured in growth medium consisting of Mccoy's 5A Medium (Gibco 16600108) supplemented with […] (Transgene FS201-02) and 100 units/mL penicillin-streptomycin (Gibco 15140122) and maintained at 37° C. under […]. On the day of seeding, 2,000 cells in 30 μL of culture media were plated per well to Poly-D-Lysine 384 Well Black Clear Plates (Biocoat 356663) and incubated overnight at 37° C. under 5% CO2. The following day, compounds were serially diluted in DMSO for a total of 11 test concentrations. The typical starting concentration of cpds was 10 μM with 2-fold dilutions. Next, 150 nL of diluted compound was added in duplicate to the assay plate, using an Echo 655 (Labcyte). The plate was centrifuged at 500 RPM for 1 min and then incubated at 37° C. under 5% CO2 for 24 h. After 24 h, medium was removed, and cells were fixed by adding 40 µL of 4% paraformaldehyde solution to each well and incubated for 20 min at room temperature. The plate was then washed 4 times with 100 μL per well of wash buffer (PBS with 0.1% Tween-20) using a microplate washer. Next, 30 μL of ice-cold methanol was added to each well and the plate was incubated at −20° C. for 10 min. The plate was washed 4 times with 100 μL per well of wash buffer by a microplate washer, then 30 μL per well of blocking buffer (Intercept PBS blocking buffer (LI-COR 927-70001) with 0.05% Tween-20) was added and the plate was incubated at room temperature with shaking for 2 h. Next, to each test well, 20 μL of primary antibody solution (p21 Waf1/CIP (12D1) Rabbit mAb (Cell Signaling Technologies 2947) diluted 1:1000 and GAPDH (D4C6R) Mouse mAb (Cell Signaling Technologies 97166) diluted 1:2000 in blocking buffer) was added and the plate was placed at 4° C., overnight. The following day, the plate was washed 5 times with 100 μL per well of wash buffer using a microplate washer for 5 min. 20 μL per well of secondary antibody (IRDye 680CW Goat anti-Mouse IgG (H+L) (LI-COR 926-68070) diluted 1: 2000 in Blocking Buffer and IRDye 800CW Goat anti-Rabbit IgG (H+L) (LI-COR 926-32211) diluted 1: 2000 in Blocking Buffer) was then added and the plate was stored for 2 h in the dark at room temperature with shaking. The plate was then washed 4 times with 100 μL per well of wash buffer again using a microplate washer. Finally, the p21 signal and the GAPDH signal were quantified using a LI-COR Odyssey CLx Imager machine reading at 800 nm and 700 nm, respectively. Each plate contained DMSO control (low control) and an internal reference WRN inhibitor (high control) respectively. For quantitation, the 800 nm/700 nm ratio was calculated for each well to give fold p21 induction and then percent activation for each compound well was calculated as follows (100×(ratio cpd well-ratio low control)/(ratio high control−ratio low control)). EC50 values for each compound were generated after non-linear regression curve fitting using commercially available software.

[2] = target: T1, human Werner helicase (WRN-BV08, amino acids 517-1235 with L1074F point mutation) (Homo sapiens, UniProt Q14191, L1074F); test: ADP-Glo WRN helicase ATPase inhibition assay; format: biochemical; settings: 0.15 nM WRN, 5 μM ATP, 0.1 nM DNA duplex; 15 minutes preincubation, 60 minutes at 25° C.; read-out: ADP-Glo_hWRN_IC50
T1 construct: [pFastBac1-WRN-(517-1235 L1074F)-TEV-8His]; 8xHis (C, cleaved yes); TEV cleavage site (ENLYFQG) (C); made in house; host or cells: Sf9 insect cells (baculovirus, pFastBac)
From the text: Bovine skin gelatin (BSG), dimethyl sulfoxide (DMSO), Pluronic F-127 and tris(2-carboxyethyl)phosphine hydrochloride solution (TCEP) were purchased from Sigma-Aldrich (St. Louis, MO) at the highest level of purity possible. Bicine buffer solution was purchased from Alfa Aesar (Tewksbury, MA) and compound NSC-617145 was purchased from Tocris (Minneapolis, MN). DNA duplex was synthesized at BGI (Shenzhen, China) and was composed of strand 1 with the sequence 5′-[…]-3′ (SEQ ID NO.: 1) and strand 2 with the sequence 5′-[…]-3′ (SEQ ID NO.: 2). DNA strands were annealed by heating to 95° C. for 5 minutes followed by slow cooling to room temperature. Compounds in 100% DMSO (0.1 μl) were spotted into a 384-well white polystyrene Optiplate-384 (Perkin Elmer; Waltham, MA) assay plate using a LabCyte Echo 550 (Agilent; Santa Clara, CA). DMSO (0.1 μl) was added to columns 12, rows A-H and column 24, rows I-P for the maximum signal control. Compound NSC-617145 (0.1 μl) was added to columns 12, rows I-P and 24, rows A-H for the minimum signal control (100% inhibition). Compounds/DMSO were preincubated for 15 minutes at 25° C. with 5 μl 2×WRN (BV08), prepared as described below, in assay buffer containing 20 mM Bicine (pH=7.5), 1 mM MgCl2, 10 mM KCl, 0.1% Pluronic F-127, 0.005% BSG, 1 mM TCEP. The reaction was initiated by the addition of 5 μl 2× substrate mixture in assay buffer and incubated for 60 minutes at 25° C. The final concentrations of the assay components were 0.15 nM WRN, 5 μM ATP, and 0.1 nM DNA duplex. The final DMSO concentration was 1% and the reference compound concentration (NSC-617145) used for the minimal signal control was 20 μM. The reaction was stopped by the addition of the ADP-Glo Kit components (Promega; Madison, WI) as directed and the relative luminescence units (RLU) were read on an Envision 2104 (Perkin Elmer; Waltham, MA). % inhibition calculation:
Where RLU=relative luminescence units, sample=signal in sample well, and MIN and MAX are the respective minimum and maximum signal controls.
Four-Parameter IC50 Fit Equation:
Where top and bottom are normally allowed to float but may be fixed at 100 or 0 respectively in a 3-parameter fit. Y is the % inhibition and X is the compound concentration.
Molecular Biology and virus production. The DNA encoding human Werner helicase (Uniprot Q14191, amino acids 517-1235 with L1074F point mutation) was generated with codon-optimization for E. coli expression and subcloned into the pFastBac vector with a TEV cleavable 8×His tag (SEQ ID NO: 5) (WRN-BV08). The baculovirus from the expression plasmid WRN-BV08 was generated from transfection and amplification following the manufacturer's instructions.
Sf9 cells grown in SF900II media were infected with 1:200 WRN-BV08 P2 virus and incubated for protein expression for 72 h at 27° C. The WRN protein was purified using the following protocol. The cell pellets were thawed and resuspended in buffer A (50 mM Tris, pH 7.5, 500 mM NaCl, 1 mM TCEP, 10% Glycerol) supplemented with 0.5% CHAPS, 1 mM PMSF, […] Leupeptin, 1 μg/ml Pepstatin, and the Pierce Universal Nuclease and cocktail tablet. Cleared lysates were loaded onto a Ni Sepharose™ excel column and washed with buffer A and bound protein was eluted with buffer A supplemented with 300 mM imidazole. The eluted protein was dialyzed against buffer A and digested by His-tagged TEV (1:5 ratio) overnight at 4° C. ZnCl2 was added into the sample at final 15 μM before loading onto a second Ni Sepharose™ excel column. Untagged WRN protein was eluted from the column with buffer A supplemented with 20 mM imidazole, dialyzed overnight into buffer B (50 mM Tris, pH 7.5, 1 mM TCEP, 10% Glycerol) supplemented with 150 mM NaCl and loaded onto a Heparin column. Proteins were eluted with a step gradient of buffer B supplemented with 150 mM, 200 mM, 300 mM and 500 mM NaCl. […]

T1 sequence (Q14191 with tags, fused parts or gaps L1074F): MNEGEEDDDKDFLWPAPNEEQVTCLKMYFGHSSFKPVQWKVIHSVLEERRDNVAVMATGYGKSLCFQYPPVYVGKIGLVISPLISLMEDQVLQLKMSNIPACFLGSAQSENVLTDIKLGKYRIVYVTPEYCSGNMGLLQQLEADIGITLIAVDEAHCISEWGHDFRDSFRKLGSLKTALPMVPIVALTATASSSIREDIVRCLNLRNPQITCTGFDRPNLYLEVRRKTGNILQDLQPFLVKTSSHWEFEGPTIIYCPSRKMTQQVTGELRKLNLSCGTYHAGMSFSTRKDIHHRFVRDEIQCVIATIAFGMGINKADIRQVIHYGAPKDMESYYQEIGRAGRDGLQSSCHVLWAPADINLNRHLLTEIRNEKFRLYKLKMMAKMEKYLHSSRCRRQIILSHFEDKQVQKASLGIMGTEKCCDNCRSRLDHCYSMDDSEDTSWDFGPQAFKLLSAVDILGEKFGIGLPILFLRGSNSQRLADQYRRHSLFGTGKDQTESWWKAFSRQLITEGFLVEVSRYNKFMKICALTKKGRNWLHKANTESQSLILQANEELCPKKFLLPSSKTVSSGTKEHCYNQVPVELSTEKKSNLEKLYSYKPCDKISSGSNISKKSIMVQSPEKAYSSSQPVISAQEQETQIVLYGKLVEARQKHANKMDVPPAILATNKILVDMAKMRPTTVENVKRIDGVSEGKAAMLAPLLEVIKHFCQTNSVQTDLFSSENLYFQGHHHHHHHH

Row | SMILES | EC50 [1] [nM] | IC50 [2] [nM]
1 | COc1cc(-n2nc3c(=O)c(N4CCN(C(=O)c5ncnc(C)c5O)[C@H]5CC[C@@H]54)c4n(c3n2)[C@H](C(=O)Nc2ccc(C(F)(F)F)cc2F)C[C@@H]4C)ccn1 (single isomer, unassigned) [Compound I-6] | ≤ 500 | ≤ 5
2 | Cc1cnc2c(n1)c(=O)c(N1CCN(C(=O)c3ncnc(C)c3O)[C@H]3CC[C@@H]31)c1n2[C@@H](C(=O)Nc2ccc(C(F)(F)F)cc2Cl)C[C@@H]1C (single isomer, unassigned) [Compound I-12] | > 5000 | > 500
3 | Cc1cnc2c(n1)c(=O)c(N1CCN(C(=O)c3ncnc(C)c3O)[C@H]3CC[C@@H]31)c1n2[C@H](C(=O)Nc2ccc(C(F)(F)F)cc2Cl)C[C@@H]1C (single isomer, unassigned) [Compound I-7] | ≤ 500 | ≤ 5
4 | COc1cc(-n2nc3c(=O)c(N4CCN(C(=O)c5ncnc(C)c5O)[C@H]5CC[C@@H]54)c4n(c3n2)[C@@H](C(=O)NC23CC(C5CC5)(C2)C3)C[C@H]4C)ccn1 (single isomer, unassigned) [Compound I-2] | ≤ 500 | 5 to 50
5 | Cc1cnc2c(n1)c(=O)c(N1CCN(C(=O)c3ncnc(C)c3O)[C@H]3CC[C@@H]31)c1n2[C@@H](C(=O)Nc2ccc(C(F)(F)F)cc2Cl)C[C@H]1C (single isomer, unassigned) [Compound I-8] | > 5000 | 100 to 500
6 | COc1cc(-n2nc3c(=O)c(N4CCN(C(=O)c5ncnc(C)c5O)[C@H]5CC[C@@H]54)c4n(c3n2)[C@H](C(=O)NC23CC(C5CC5)(C2)C3)C[C@H]4C)ccn1 (single isomer, unassigned) [Compound I-3] | 500 to 2000 | 50 to 100
7 | Cc1cnc2c(n1)c(=O)c(N1CCN(C(=O)c3ncnc(C)c3O)[C@H]3CC[C@@H]31)c1n2[C@H](C(=O)Nc2ccc(C(F)(F)F)cc2Cl)C[C@H]1C (single isomer, unassigned) [Compound I-11] | ≤ 500 | ≤ 5

Continued, values first:

Row | EC50 [1] [nM] | IC50 [2] [nM] | SMILES
8 | ≤ 500 | ≤ 5 | Cc1ncnc(C(=O)N2CCN(c3c4n(c5nn(C6=CCOCC6)nc5c3=O)[C@@H](C(=O)Nc3ccc(C(F)(F)F)cc3Cl)C[C@H]4C)[C@H]3CC[C@@H]32)c1O (single isomer, unassigned) [Compound I-23]
9 | > 5000 | > 500 | Cc1ncnc(C(=O)N2CCN(c3c4n(c5nn(C6=CCOCC6)nc5c3=O)[C@H](C(=O)Nc3ccc(C(F)(F)F)cc3Cl)C[C@@H]4C)[C@H]3CC[C@@H]32)c1O (single isomer, unassigned) [Compound I-24]
10 | ≤ 500 | ≤ 5 | COc1cc(-n2nc3c(=O)c(N4CCN(C(=O)c5ncnc(C)c5O)[C@H]5CC[C@@H]54)c4n(c3n2)[C@@H](C(=O)Nc2ccc(C(F)(F)F)cc2F)C[C@@H]4C)ccn1 (single isomer, unassigned) [Compound I-15]
11 | ≤ 500 | ≤ 5 | Cc1nc2c(=O)c(N3CCN(C(=O)c4ncnc(C)c4O)[C@H]4CC[C@@H]43)c3n(c2nc1C)[C@H](C(=O)Nc1ccc(C(F)(F)F)cc1Cl)C[C@@H]3C (single isomer, unassigned) [Compound I-18]
12 | 500 to 2000 | 5 to 50 | Cc1ncnc(C(=O)N2CCN(c3c4n(c5nn(C6CC6)nc5c3=O)[C@@H](C(=O)Nc3ccc(C(F)(F)F)cc3Cl)C[C@@H]4C)[C@H]3CC[C@@H]32)c1O (relative stereo) [Compound I-28, (6R*,8R**)-N-[2-chloro-4-(trifluoromethyl)phenyl]-2-cyclopropyl-5-[(1S,6S)-5-(5-hydroxy-6-methylpyrimidine-4-carbonyl)-2,5-diazabicyclo[4.2.0]octan-2-yl]-6-methyl-4-oxo-2H,4H,6H,7H,8H-[1,2,3]triazolo[4,5-e]indolizine-8-carboxamide]
13 | > 5000 | 100 to 500 | Cc1ncnc(C(=O)N2CCN(c3c4n(c5nn(C6CC6)nc5c3=O)[C@H](C(=O)Nc3ccc(C(F)(F)F)cc3Cl)C[C@@H]4C)[C@H]3CC[C@@H]32)c1O (single isomer, unassigned) [Compound I-22]
